Columns and labels:
[1] = Arterial blood sampling and radiometabolite analysis after i.v. [^18F]UCB-H; type: in vivo, cynomolgus monkeys (Macaca fascicularis); settings: for intact parent fraction: arterial blood
Description: (§1) All four non-human primates (NHP) underwent a 2-h (2 h) test and retest PET scan; two NHP underwent an additional 4-h (4 h) retest PET scan. Three NHP underwent one 4-h (4 h) displacement PET scan. Arterial blood sampling was performed during test and retest scans with PET imaging spaced by at least 3 weeks between each scan. To this end, the femoral artery opposite to the saphenous vein used for radioligand injection was cannulated. For the 2-h (2 h) scans, we collected in total 28 blood samples of 1 mL: 16 samples during the first 5 min followed by […] every 5 min and […] every 10 min. For the 4 h scans, we collected an additional 6 samples every 20 min during the last two hours (34 samples in total). Larger samples (2 – 3 mL) were collected at 5, 15, 30, 60, 90, 120 min (2 h) and at 180, 240 min (4 h) for metabolite analysis. Displacement of [^18F]UCB-H was done by intravenous (IV) administration 90 min after [^18F]UCB-H injection of a bolus of 30 mg/kg LEV, or of 80 µg/kg (≈250 nmol/kg) or 5 mg/kg (≈15 µmol/kg) of cold [^19F]-UCB-H. Full experimental design of all NHP is outlined in Additional file 1: Table 1.
Plasma was separated from whole-blood by centrifugation (5 min, 2054xg, 4 °C) and 50 µL of plasma and whole-blood were counted using a PET cross-calibrated gamma well counter (WIZARD^2, PerkinElmer, France) to obtain the whole-blood and plasma activity curves. All data were corrected for radioactive decay from the injection time. For the larger blood samples, 500 µL plasma was deproteinized with acetonitrile. The supernatant was injected in high-performance liquid chromatography, equipped with an Atlantis® T3 5 μm 4.6 × 150 mm column (Waters) and an Atlantis® T3 5 μm 3.9 × 5 mm pre-column (Waters), with an LB-513 radioactivity flow detector (Berthold, La Garenne Colombes, France, MX Z100 cell). The eluant was collected in intervals of 15 s (fraction collector III, Waters, France) and counted in the gamma well counter (WIZARD^2, PerkinElmer, France) to measure total activity. [^18F]UCB-H parent fraction was calculated as a percentage of the total radioactivity (metabolites and parent).
For each animal, a 2-exponential decay function was fitted to [^18F]UCB-H parent fraction, which was time multiplied with the plasma activity curve to obtain the metabolite-corrected arterial plasma input function (mcAIF) used for the kinetic modeling.

SV2A = target: T1, SV2A (Macaca fascicularis, UniProt Q4R4X3); test: Displacement PET studies of [^18F]UCB-H; type: in vivo, cynomolgus monkeys (Macaca fascicularis); settings: about half of total uptake displaceable
T1 construct: The current study evaluates [^18F]UCB-H pharmacokinetics in healthy NHPs; from tissue; host or cells: brain of living healthy cynomolgus monkeys (in vivo PET)
Description: as §1
Solvents and LEV (C8H14N2O2; MM 170.21 g/mol) were obtained at Sigma-Aldrich® (France), and [^19F]-UCB-H (C16H12F4N2O; MM 324.28 g/mol) was synthesised as previously described. Injectable solutions of [^19F]-UCB-H for displacement studies were prepared with a mixture of Tetrahydrofuran (THF), Médialipide® and glucose at 2.5% as previously described. LEV was dissolved in a glucose solution of 2.5% to reach a concentration of 90 mg/mL.
PET image analysis was performed using PMOD software version 3.8 (PMOD Technologies Ltd., Zurich, Suisse). After individual co-registration of PET-MR images, a cynomolgus atlas published by Ballanger and coworkers was normalized to PET images to extract time activity curves in different brain regions. Volumes of interest (VOI) were cerebral white matter (16.7 cm^3), striatum (0.24 cm^3), thalamus (0.89 cm^3), cerebellum (3.83 cm^3), frontal—(2.50 cm^3), parietal—(5.35 cm^3), and temporal (8.22 cm^3) cortex, and whole brain (72.2 cm^3) as a composite region of all regions in the atlas. [^18F]UCB-H pharmacokinetics were evaluated by analyzing the time activity curves of the test- and retest scans using 1- and 2-tissue compartment models (unconstrained and constrained with global K1/k2 coupled fit across all regions, further referred to as 2TCM and 2TCM-c), and Logan graphical analysis with a fixed t* at 60 min [33] using the arterial plasma input function corrected for radio-metabolites to derive the volume of distribution in each region. Percentage standard error (%SE) was estimated from the theoretical parameter covariance matrix. Only reliable estimates (%SE less than 25%) were included in the current analyses. For the three drug studies, percent displacement of the total activity in the whole brain was estimated relative to an average baseline constructed from the two 4 h baseline studies. Briefly, Standardized Uptake Value (SUV) time activity curves (TACs) were calculated for the two baseline and the three displacement studies. Then, each curve was normalized to the SUV at t = 90 min, corresponding to the timeframe immediately before the administration of the drugs in the displacement studies. Baseline curves were averaged and the percent displacement of total activity was calculated as (baseline-displacement)/baseline at a given time post drug administration (see “Results”).

[2] = Plasma free fraction by ultrafiltration; type: in vitro ADME; settings: NHP plasma, before tracer injection
Description: The fraction of [^18F]UCB-H in NHP plasma samples not bound to plasma protein was measured before PET injection using a previously described ultrafiltration method. In brief, standard amounts of [^18F]UCB-H (≈15 kBq) were added to 200 μL plasma that was applied to Microcon® filtration devices containing an YM-10 membrane (Millipore, France). The devices were centrifuged for 10 min at 10,000 g (Sigma 2-16KL, France). [^18F]UCB-H activity concentration in the resulting ultrafiltrate (≈70 μL, CFP) and a sample of plasma (CP) were counted. The free fraction (fp) was calculated as: fp = CFP/CP and measured in triplicates.

T1 sequence (Q4R4X3 whole entry): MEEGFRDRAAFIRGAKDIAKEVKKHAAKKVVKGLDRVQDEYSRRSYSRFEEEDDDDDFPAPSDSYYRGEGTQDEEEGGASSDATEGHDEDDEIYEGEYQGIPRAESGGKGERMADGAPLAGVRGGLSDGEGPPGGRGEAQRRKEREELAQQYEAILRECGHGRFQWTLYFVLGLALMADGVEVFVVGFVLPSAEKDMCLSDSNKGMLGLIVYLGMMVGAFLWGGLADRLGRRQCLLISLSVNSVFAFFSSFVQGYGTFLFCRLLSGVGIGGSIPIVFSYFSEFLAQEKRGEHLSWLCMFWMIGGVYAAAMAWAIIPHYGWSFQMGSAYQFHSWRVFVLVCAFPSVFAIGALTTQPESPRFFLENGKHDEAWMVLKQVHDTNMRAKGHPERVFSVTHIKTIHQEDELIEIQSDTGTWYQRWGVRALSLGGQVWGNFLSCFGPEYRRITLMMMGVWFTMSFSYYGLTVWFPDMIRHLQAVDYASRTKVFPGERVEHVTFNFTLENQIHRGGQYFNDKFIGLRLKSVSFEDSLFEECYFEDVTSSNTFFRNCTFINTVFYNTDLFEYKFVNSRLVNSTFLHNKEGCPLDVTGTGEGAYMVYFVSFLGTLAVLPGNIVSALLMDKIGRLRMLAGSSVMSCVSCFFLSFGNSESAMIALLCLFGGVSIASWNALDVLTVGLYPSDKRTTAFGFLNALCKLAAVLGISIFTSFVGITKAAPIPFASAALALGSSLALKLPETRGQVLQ

O=C1C[C@H](c2cc(F)c(F)c(F)c2)CN1Cc1ccncc1[18F] [[^18F]UCB-H]
intact parent fraction ([1]; 15 min after tracer injection): 37 ± 3.9%
intact parent fraction ([1]; 30 min after tracer injection): 29.5 ± 3.4%
intact parent fraction ([1]; 60 min after tracer injection): 19 ± 3.5%
intact parent fraction ([1]; 120 min after tracer injection): 14.6 ± 1.9%
intact parent fraction ([1]; 240 min after tracer injection): 4.4 ± 0.7%
plasma to whole-blood ratio ([1]; over the entire 120-min acquisition period): 0.90 ± 0.05
BPND expected from maximum displacement (SV2A): ~1.0
Plasma free parent fraction (fp) [2]: 42.6 ± 1.6%
